Entries after “also recorded” stand apart in the source; their conditions may differ.
What was measured:
COX-1 = assay: Western blot of COX-1 in paw exudates; format: in vivo, rat; settings: NOSH-1 at 2 doses one hour before carrageenan
Experimental: Exudates (oedema fluid) and some tissue were homogenized in lysis buffer (0.1% Triton X-100, 50 μM pepstatin, 0.2 mM leupeptin, 1 μg/mL aprotinin, 10 mg/ml phenylmethylsulfonyl fluoride, 50 mM Tris, and 10 mM EDTA). Samples were then centrifuged, and the protein concentration of the supernatant was determined by colorimetric assay (Bio-Rad, Hercules, Calif.). Protein (30 μg) was separated on a 10% polyacrylamide gel and then transferred to a nitrocellulose membrane (Bio-Rad, Hercules, Calif.). Proteins were probed with monoclonal mouse antibody against COX-1 and COX-2 (1:500; Cayman Chemical, Ann Arbor, Mich.). The membrane was then incubated with a goat anti-mouse IgG secondary antibody conjugated to horseradish peroxidase (Santacruz Biotechnology, Santa Cruz, Calif.). A chemiluminescence reagent (Amersham Pittsburg, Pa.) was added to visualize the labeling according to the manufacturer's instructions.

HT-29 colon cancer cells [1] = assay: Cell cycle analysis, PI staining and flow cytometry; format: cell-based, human
Experimental: (§1) Growth inhibition was measured using a colorimetric MTT assay kit (Roche, Indianapolis, Ind.). Proliferation (PCNA) was assessed using an ELISA kit from Calbiochem, (La Jolla, Calif.). Cell cycle phase distributions and apoptosis of control and treated cells were determined as previously described. All methods are described in Chattopadhyay et al., Biochemical Pharmacology, 2012, 83(6), 715-722.

HT-29 colon cancer cells [2] = assay: Apoptosis, Annexin V staining and flow cytometry; format: cell-based, human
Experimental: as §1

HT-29 cells xenograft = assay: HT-29 tumor xenograft in athymic nude mice; format: in vivo, mouse
Experimental: Male athymic nude (NU/NU) mice (N=8), age 5 weeks, were purchased from Charles River Laboratories, Inc., (Wilmington, Mass.). HT-29 cells (2×10^6) suspended in 50% v/v Matrigel (BD Biosciences, San Jose, Calif.) were inoculated subcutaneously in the right flanks of each mouse. When the tumors reached an average sizes of ˜80 mm^3, the mice were randomly divided (N=4/group) and gavaged daily for 18 days with either vehicle (1% methylcelloluse) or NOSH-1 (100 mg/kg body weight). Tumor size (length and width) was measured at 3 day intervals with an electronic caliper from which tumor volume was calculated as length×width^2/2. The mice were weighed every 3 days and were closely monitored for signs of toxicity.

[3] = tested on: eleven different cancer cell lines; assay: MTT cell growth inhibition, all cell lines of the panel; format: cell-based; settings: Homo sapiens; 24 hr; colon, breast, pancreas, lung, prostate, leukemia cancer cell lines of Table 1
Experimental: HT-29, SW-480 and HCT-15 human colon adenocarcinoma, MIA PaCa-2 and BxPC-3 human pancreatic cancer, LNCAP human prostate cancer, A549 human lung cancer, MCF-7 (estrogen receptor positive), MDA-MB 231 and SK-BR-3 (estrogen receptor negative) human breast cancer, and Jurkats human leukemia cell lines were obtained from American Type Tissue Collection (Manassas, Va.). All cells lines were grown as monolayers except for the Jurkats which were grown in suspension. […] Single cell suspensions were obtained by trypsinization (0.05% trypsin/EDTA), and cells were counted using a hemocytometer. Viability was determined by the trypan blue dye exclusion method.
Cell growth inhibitory effect of NOSH compounds were measured using a colorimetric MTT assay kit (Roche, Indianapolis, Ind.). […] The absorbance of the plates was measured on an ELISA reader at a wavelength of 570 nm. […]
HT-29, SW-480 and HCT-15 human colon adenocarcinoma, MIA PaCa-2 and BxPC-3 human pancreatic cancer, LNCAP human prostate cancer, A549 and H383 human lung cancer, MCF-7, MDA-MB 231 and SK-BR-3 human breast cancer and Jurkat T cell human leukemia cell lines were obtained from American Type Tissue Collection (Manassas, Va.) All cells lines were grown as monolayers except for the Jurkat T cells which were grown as suspension culture. […] Viability was determined by the trypan blue dye exclusion method. […]

Row | SMILES | COX-1 expression in paw exudates induced by carrageenan (COX-1) | cell population in G2/M phase (HT-29 colon cancer cells [1]; 1×IC50, 24 hours, control 26.9±2.2) [%] | cell population in S phase (HT-29 colon cancer cells [1]; 1×IC50, 24 hours, control 30.2±2.3%) [%] | cell population in G0/G1 phase (HT-29 colon cancer cells [1]; 1×IC50, 24 hours, control 42.9±2%) [%] | cell population in G0/G1 phase (HT-29 colon cancer cells [1]; 2×IC50, 24 hours) [%] | cell population in G2/M phase (HT-29 colon cancer cells [1]; 2×IC50, 24 hours) [%] | cell population in S phase (HT-29 colon cancer cells [1]; 2×IC50, 24 hours) | cells in early apoptotic phase (HT-29 colon cancer cells [2]; 0.5×IC50, 24 hours) [%] | cells in early apoptotic phase (HT-29 colon cancer cells [2]; 1×IC50, 24 hours) [%] | cells in early apoptotic phase (HT-29 colon cancer cells [2]; 2×IC50, 24 hours) [%] | signs of toxicity (HT-29 cells xenograft; 100 mg/kg daily for 18 days) | mean reduction of tumor volume (HT-29 cells xenograft; 100 mg/kg daily for 18 days, vs control) [%] | mean tumor volume (HT-29 cells xenograft; 100 mg/kg daily gavage for 18 days, control 2300±200) [mm^3] | tumor volume versus vehicle (FIG. 7B) (HT-29 cells xenograft; 6 days after treatment to sacrifice, P<0.05 day 6, P<0.01 days 9-18) | average weight of the mice, beginning of the study (HT-29 cells xenograft; treated mice, 100 mg/kg daily) [g] | average weight of the mice, end of the study (HT-29 cells xenograft; treated mice, 100 mg/kg daily for 18 days) [g] | IC50 [3] [mM]
1 | O=C(CCCO[N+](=O)[O-])Oc1ccccc1C(=O)Oc1ccc(-c2cc(=S)ss2)cc1 [NOSH-1, 4-(3-thioxo-3H-1,2-dithiol-5-yl)phenyl 2-((4-(nitrooxy)butanoyl)oxy)benzoate] | inhibited induction; also recorded: inhibited to the same extent | 15.4±2.6 | 22.6±1.3 | 62.0±2.3 | 74.2±1.2 | 9.5±1.8 | 16.3±1.2 | 24.7±1.4 | 32.8±2.1 | 55.9±3.3 | no overt signs of toxicity | 85 | 350±35 | significantly reduced tumor volume | 21.7 ± 0.82 | 27.2 ± 1.1 | 
2 | CC(=O)Oc1ccccc1C(=O)O [ASA, aspirin, reference compound] |  |  |  |  |  |  |  |  |  |  |  |  |  |  |  |  | > 5

Reference: patent US10450260B2, “NO- and H2S-releasing compounds” (RESEARCH FOUNDATION OF THE CITY UNIVERSITY OF NEW YORK, priority 2011, dated 2019)
